Measurements published in patent US9447044B2, “Thioaryl derivatives as GPR120 agonists” (LG LIFE SCIENCES LTD., priority 2012, dated 2016).

Molecular target: T1, hGPR120 (Homo sapiens, UniProt Q5NUL3)
T1 construct: expressed in transfected cells; host or cells: CHO-K1
T1 sequence (Q5NUL3 1-361): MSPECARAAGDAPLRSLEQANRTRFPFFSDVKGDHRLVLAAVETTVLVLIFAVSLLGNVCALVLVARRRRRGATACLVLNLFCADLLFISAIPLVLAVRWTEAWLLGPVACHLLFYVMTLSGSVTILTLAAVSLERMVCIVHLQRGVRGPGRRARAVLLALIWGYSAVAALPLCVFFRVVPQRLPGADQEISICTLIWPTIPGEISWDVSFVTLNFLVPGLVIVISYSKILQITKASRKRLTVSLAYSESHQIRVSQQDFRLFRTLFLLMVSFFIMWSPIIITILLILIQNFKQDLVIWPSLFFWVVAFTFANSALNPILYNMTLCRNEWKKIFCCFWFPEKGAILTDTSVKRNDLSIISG
Assay: Measurement of activity of GPR120 agonist (cell-based assay), calcium fluorescence
Settings: CHO-K1 cells expressing Ga16 and hGPR120, Calcium 5 dye fluorescence
Description: CHO-K1 cells expressing Ga16 and hGPR120 were dispensed into each well of a 96-well plate (3×10^4 cells/100 μl/well) and then incubated in 5% CO2, 37° C. incubator for 18 hours. Each well was treated with 100 μl of Calcium 5 dye (Molecular Devices) solution including 2% DMSO and then incubated in 5% CO2, 37° C. incubator for 1 hour. Serially diluted GPR120 agonists were prepared to a final concentration of 0.5% DMSO in a 96-well plate. Each well was treated with 50 μl of the agonist compounds using Plexstation II, and then fluorescence was measured at Ex 485 nm, Em 525 nm.
Fluorescence increased by the serially diluted GPR120 agonists is calculated as a relative percent (%) value based on the fluorescence represented by the treatment of 0.1% DMSO only. […] The calculation of measurement was carried out by using statistical software (Prizm).
Activity is denoted based on the following criteria: A=>20 μM, B=[…], C=2˜0.2 μM, D=<0.2 μM

SMILES | EC50 (activity class) [nM] | EC50 (numeric value) [nM]
Cc1c(OCc2cccnc2SCC2CC2)ccc(C2CC2C(=O)O)c1C (stereo not drawn) [Example 106, 2-[4-(2-cyclopropylmethylsulfanyl-pyridin-3-ylmethoxy)-2,3-dimethyl-phenyl]-cyclopropane carboxylic acid] | > 20000 | 
CCCSc1ncccc1COc1c(F)cc(CC2CC2C(=O)O)cc1F (stereo not drawn) [Example 117, 2-[3,5-difluoro-4-(2-propylsulfanyl-pyridin-3-ylmethoxy)-benzyl]-cyclopropane carboxylic acid] |  | 108
CC(C)Sc1cccc(COc2ccc(CC(C)(C)C(=O)O)cc2)n1 [Example 70, 3-[4-(6-isopropylsulfanyl-pyridin-2-ylmethoxy)-phenyl]-2,2-dimethyl-propionic acid] |  | 1880
O=C(O)C1CC1c1ccc(OCc2cccnc2SCC2CC2)c(Cl)c1 (stereo not drawn) [Example 127, 2-[3-chloro-4-(2-cyclopropylmethylsulfanyl-pyridin-3-ylmethoxy)-phenyl]-cyclopropane carboxylic acid] | < 200 | 
O=C(O)CC1COc2cc(OCc3cccc(SC4CCCC4)n3)ccc21 (stereo not drawn) [Example 68, [6-(6-cyclopentylsulfanyl-pyridin-2-ylmethoxy)-2,3-dihydro-benzofuran-3-yl]-acetic acid] | 200 to 2000 | 
CC(C)Sc1ncccc1COc1ccc(C2CC2C(=O)O)cc1Cl (stereo not drawn) [Example 126, 2-[3-chloro-4-(2-isopropylsulfanyl-pyridin-3-ylmethoxy)-phenyl]-cyclopropane carboxylic acid] |  | 91
O=C(O)CCCc1ccc(OCc2cccnc2SC2CCCC2)cc1 [Example 21, 4-[4-(2-cyclopentylsulfanyl-pyridin-3-ylmethoxy)-phenyl]-butyric acid] |  | 68
O=C(O)CCc1ccc(OCc2cccnc2SC2CCCC2)c(Cl)c1 [Example 78, 3-[3-chloro-4-(2-cyclopentylsulfanyl-pyridin-3-ylmethoxy)-phenyl]-propionic acid] | < 200 | 
CC(C)Sc1ncccc1COc1c(F)cc(CCC(=O)O)cc1F [Example 1, 3-[3,5-difluoro-4-(2-isopropylsulfanyl-pyridin-3-ylmethoxy)-phenyl]-propionic acid] | < 200 | 
CC(Cc1ccc(OCc2cccc(SC3CCCC3)n2)c(F)c1)C(=O)O (stereo not drawn) [Example 54, 3-[4-(6-cyclopentylsulfanyl-pyridin-2-ylmethoxy)-3-fluoro-phenyl]-2-methyl-propionic acid] | < 200 | 
O=C(O)CCc1ccc(OCc2cccnc2SC2CCCC2)cc1F [Example 173] | < 200 | 
O=C(O)C1CC1c1ccc(OCc2cccnc2SC2CCC2)c(Cl)c1 (stereo not drawn) [Example 102, 2-[3-chloro-4-(2-cyclobutylsulfanyl-pyridin-3-ylmethoxy)-phenyl]-cyclopropane carboxylic acid] | < 200 | 
COc1cc(CCC(=O)O)ccc1OCc1cccnc1SC(C)C [Example 57, 3-[4-(2-isopropylsulfanyl-pyridin-3-ylmethoxy)-3-methoxy-phenyl]-propionic acid] |  | 454
O=C(O)C1CC1c1ccc(OCc2cccc(SCC3CC3)n2)c(Cl)c1 (stereo not drawn) [Example 98, 2-[3-chloro-4-(6-cyclopropylmethylsulfanyl-pyridin-2-ylmethoxy)-phenyl]-cyclopropane carboxylic acid] | < 200 | 
O=C(O)CC1CC1c1ccc(OCc2cccc(SC3CCCC3)n2)c(F)c1 (stereo not drawn) [Example 120, {2-[4-(6-cyclopentylsulfanyl-pyridin-2-ylmethoxy)-3-fluoro-phenyl]-cyclopropyl}-acetic acid] | 200 to 2000 | 
O=C(O)C1CC1c1ccc(OCc2cccc(SC3CCCC3)n2)cc1Cl (stereo not drawn) [Example 104] | 200 to 2000 | 
O=C(O)CC1COc2cc(OCc3cccnc3SC3CCCC3)ccc21 (stereo not drawn) [Example 74, [6-(2-cyclopentylsulfanyl-pyridin-3-ylmethoxy)-2,3-dihydro-benzofuran-3-yl]-acetic acid] | < 200 | 
Cc1c(OCc2cccnc2SC(C)C)ccc(C2CC2C(=O)O)c1C (stereo not drawn) [Example 105, 2-[4-(2-isopropylsulfanyl-pyridin-3-ylmethoxy)-2,3-dimethyl-phenyl]-cyclopropane carboxylic acid] | 2000 to 20000 | 

SMILES | EC50 (activity class) [nM] | EC50 (numeric value) [nM]
O=C(O)CCc1ccc(OCc2cccc(SCC3CC3)n2)c(F)c1 [Example 151, 3-[4-(6-cyclopropylmethylsulfanyl-pyridin-2-ylmethoxy)-3-fluoro-phenyl]-propionic acid] | < 200 | 
O=C(O)C1CC1c1ccc(OCc2cccnc2SC2CCC2)c(F)c1 (single isomer, unassigned) [Example 133, 2-[4-(2-cyclobutylsulfanyl-pyridin-3-ylmethoxy)-3-fluoro-phenyl]-cyclopropane carboxylic acid] | 200 to 2000 | 
O=C(O)C1CC1c1cc(F)c(OCc2cccnc2SCC2CC2)c(F)c1 (single isomer, unassigned) [Example 137, 2-[4-(2-cyclopropylmethylsulfanyl-pyridin-3-ylmethoxy)-3,5-difluoro-phenyl]-cyclopropane carboxylic acid] | < 200 | 
O=C(O)CCc1ccc(OCc2cccnc2SCC2CC2)c(Cl)c1 [Example 157, 3-[3-chloro-4-(2-cyclopropylmethylsulfanyl-pyridin-3-ylmethoxy)-phenyl]-propionic acid] | < 200 | 
CCC(C)Sc1cccc(COc2c(F)cc(CCC(=O)O)cc2F)n1 (stereo not drawn) [Example 34, 3-[4-(6-sec-butylsulfanyl-pyridin-2-ylmethoxy)-3,5-difluoro-phenyl]-propionic acid] | < 200 | 
CC(C)Sc1cccc(COc2ccc(C3CC3C(=O)O)cc2F)n1 (single isomer, unassigned) [Example 131, 2-[3-fluoro-4-(6-isopropylsulfanyl-pyridin-2-ylmethoxy)-phenyl]-cyclopropane carboxylic acid] | 200 to 2000 | 
Cc1cnc(SC(C)C)c(COc2ccc(CCC(=O)O)cc2)c1 [Example 5, 3-[4-(2-isopropylsulfanyl-5-methyl-pyridin-3-ylmethoxy)-phenyl]-propionic acid] | < 200 | 
O=C(O)C1CC1c1ccc(OCc2cccnc2SC2CCC2)c(F)c1 (single isomer, unassigned) [Example 169, 2-[4-(2-cyclobutylsulfanyl-pyridin-3-ylmethoxy)-3-fluoro-phenyl]-cyclopropane carboxylic acid] | < 200 | 
COc1ccc(COc2c(F)cc(CCC(=O)O)cc2F)c(SC2CCCC2)n1 [Example 76, 3-[4-(2-cyclopentylsulfanyl-6-methoxy-pyridin-3-ylmethoxy)-3,5-difluoro-phenyl]-propionic acid] | 200 to 2000 | 
CCCSc1ncccc1COc1ccc(C2CC2C(=O)O)cc1Cl (stereo not drawn) [Example 108, 2-[3-chloro-4-(2-propylsulfanyl-pyridin-3-ylmethoxy)-phenyl]-cyclopropane carboxylic acid] | < 200 | 
CCC(C)Sc1ncccc1COc1c(F)cc(CC(C)C(=O)O)cc1F (stereo not drawn) [Example 42, 3-[4-(2-sec-butylsulfanyl-pyridin-3-ylmethoxy)-3,5-difluoro-phenyl]-2-methyl-propionic acid] | 200 to 2000 | 
CC(Cc1cc(F)c(OCc2cccc(SC3CCC3)n2)c(F)c1)C(=O)O (stereo not drawn) [Example 46, 3-[4-(6-cyclobutylsulfanyl-pyridin-2-ylmethoxy)-3,5-difluoro-phenyl]-2-methyl-propionic acid] | < 200 | 
CC(C)Sc1cccc(COc2ccc(CC(C)C(=O)O)cc2Cl)n1 (stereo not drawn) [Example 93, 3-[3-chloro-4-(6-isopropylsulfanyl-pyridin-2-ylmethoxy)-phenyl]-2-methyl-propionic acid] | < 200 | 
CC(Cc1cc(F)c(OCc2cccnc2SC2CCC2)c(F)c1)C(=O)O (stereo not drawn) [Example 56, 3-[4-(2-cyclobutylsulfanyl-pyridin-3-ylmethoxy)-3,5-difluoro-phenyl]-2-methyl-propionic acid] | < 200 | 
O=C(O)C1CC1c1ccc(OCc2cccc(SC3CCC3)n2)c(F)c1 (single isomer, unassigned) [Example 167, 2-[4-(6-cyclobutylsulfanyl-pyridin-2-ylmethoxy)-3-fluoro-phenyl]-cyclopropane carboxylic acid] |  | 6
O=C(O)CCc1cc(F)c(OCc2cccnc2SC2CCC2)c(F)c1 [Example 23, 3-[4-(2-cyclobutylsulfanyl-pyridin-3-ylmethoxy)-3,5-difluoro-phenyl]-propionic acid] | < 200 | 
CC(C)Sc1ncccc1COc1c(F)cc(CC2CC2C(=O)O)cc1F (stereo not drawn) [Example 116, 2-[3,5-difluoro-4-(2-isopropylsulfanyl-pyridin-3-ylmethoxy)-benzyl]-cyclopropane carboxylic acid] | 200 to 2000 | 
O=C(O)C1CC1c1ccc(OCc2cccnc2SC2CCC2)c(F)c1 (stereo not drawn) [Example 88, 2-[4-(2-cyclobutylsulfanyl-pyridin-3-ylmethoxy)-3-fluoro-phenyl]-cyclopropane carboxylic acid] |  | 57000
